Measured values from US5773029A, “High solubility multicomponent inclusion complexes consisting of an acidic drug, a cyclodextrin and a base” (Chiesi Farmaceutici S.p.A., priority 1994, dated 1998).
≈ marks a conversion by molar mass, not a printed value. One block for each compound: values may come before it.

Experiments:
physchem = experiment: physchem
Source text: Equilibrium solubility, at room temperature,
at different pH values, of Glibenclamide (G), its
sodium salt (G--Na), and a physical mixture thereof with
βCD (G/βCD) in a 1:1, 1:2, 1:3.
Equilibrium solubility (eq.) and instant solubility
at various times, at room temperature, at different pH values, […]

[1] = Dissolution: glibenclamide concentration versus time at room temperature in buffer (Table 3); assay type: physicochemical
[2] = cited from earlier work

solubility thermodynamic (physchem): 400 to 700 µg/mL (≈ 1350 to 2370 µM)
SMILES: NS(=O)(=O)c1cc2c(cc1Cl)N=CNS2(=O)=O [Chlorothiazide]

SMILES: CN1C(C(=O)Nc2ccccn2)=C(O)c2ccccc2S1(=O)=O [P, Piroxicam]
solubility thermodynamic (physchem; pH 1.2): 108 µg/mL (≈ 326 µM)
solubility thermodynamic (physchem; pH 6): 76 µg/mL (≈ 229 µM)
solubility thermodynamic (physchem; pH 7): 570 µg/mL (≈ 1720 µM)
solubility thermodynamic (physchem; pH 7.5): 1030 µg/mL (≈ 3110 µM)

solubility thermodynamic (physchem; pH 9.3): 7000 µg/mL (≈ 14200 µM)
SMILES: COc1ccc(Cl)cc1C(=O)NCCc1ccc(S(=O)(=O)NC(=O)NC2CCCCC2)cc1 [G--Na]

solubility thermodynamic (physchem; pH 4): 4 µg/mL (≈ 8.1 µM)
solubility thermodynamic (physchem; pH 7.39): 18.8 µg/mL (≈ 38.1 µM)
solubility thermodynamic (physchem; pH 7.5): 20 µg/mL (≈ 40.5 µM)
solubility thermodynamic (physchem; pH 8.89): 299 µg/mL (≈ 605 µM)
solubility thermodynamic (physchem; pH 9): 600 µg/mL (≈ 1210 µM)
solubility thermodynamic (physchem; pH 9.53): 768 µg/mL (≈ 1550 µM)
Glibenclamide concentration by dissolution ([1]; pH 1.4, 05 min): < 0.01 mg/mL
Glibenclamide concentration by dissolution ([1]; pH 1.4, 15 min): < 0.01 mg/mL
Glibenclamide concentration by dissolution ([1]; pH 1.4, 30 min): < 0.01 mg/mL
Glibenclamide concentration by dissolution ([1]; pH 1.4, 40 min): < 0.01 mg/mL
Glibenclamide concentration by dissolution ([1]; pH 1.4, 50 min): < 0.01 mg/mL
Glibenclamide concentration by dissolution ([1]; pH 5.0, 05 min): < 0.01 mg/mL
Glibenclamide concentration by dissolution ([1]; pH 5.0, 10 min): < 0.01 mg/mL
Glibenclamide concentration by dissolution ([1]; pH 5.0, 20 min): < 0.01 mg/mL
Glibenclamide concentration by dissolution ([1]; pH 5.0, 40 min): < 0.01 mg/mL
Glibenclamide concentration by dissolution ([1]; pH 5.0, 50 min): < 0.01 mg/mL
SMILES: COc1ccc(Cl)cc1C(=O)NCCc1ccc(S(=O)(=O)NC(=O)NC2CCCCC2)cc1 [G, Glibenclamide]
pKa [2]: 6.8
